Data as given in patent publication US10538554B2, “Peptides and uses therefor as antiviral agents” (priority 2015, dated 2020).
Bridge positions count the residues as written; N and C are the ends. Square brackets hold non-standard residues; d marks the D form. Peptide text beside a SMILES is read from it.

System: H3N8 A/Miami/2/63
Details: A/Miami/2/63, 48 h, 500 μM

Row | Compound | % inhibition H3N8 [%]
1 | CSCC[C@H]1NC(=O)[C@@H](Cc2ccccc2)NC(=O)[C@@H](CCCNC(=N)N)NC(=O)[C@@H](CO)NC(=O)[C@@H](CCCCN)NC(=O)[C@@H]([C@H](C)O)NC(=O)[C@H](N)CSSC[C@H](C(=O)O)NC(=O)[C@@H](CC(N)=O)NC1=O [PSP 11, H-ctksrfmnc-OH] (H-[dC][dT][dK][dS][dR][dF][dM][dN][dC]-OH; disulfide 1-9) | 67
2 | CC[C@@H](C)[C@H]1NC(=O)[C@@H](Cc2ccccc2)NC(=O)[C@@H](CCCNC(=N)N)NC(=O)[C@@H](CO)NC(=O)[C@@H](CS)NC(=O)[C@@H]([C@H](C)O)NC(=O)[C@H](NC(=O)[C@@H](CCCCN)NC(=O)[C@@H](CCCCN)NC(=O)[C@@H](CCCNC(=N)N)NC(=O)[C@H](N)CCCNC(=N)N)CSSC[C@H](C(=O)O)NC(=O)[C@@H](CC(N)=O)NC1=O [PSP II A2, H-rrkkctcsrfinc-OH] (H-[dR][dR][dK][dK][dC][dT][dC][dS][dR][dF][dI][dN][dC]-OH; disulfide 5-13) | 44.4
3 | CC[C@@H](C)[C@H]1NC(=O)[C@@H](Cc2ccccc2)NC(=O)[C@@H](CCCNC(=N)N)NC(=O)[C@@H](CO)NC(=O)[C@@H](CC(N)=O)NC(=O)[C@@H]([C@H](C)O)NC(=O)[C@H](NC(=O)[C@@H](CCCCN)NC(=O)[C@@H](CCCCN)NC(=O)[C@@H](CCCNC(=N)N)NC(=O)[C@H](N)CCCNC(=N)N)CSSC[C@H](C(=O)O)NC(=O)[C@@H](CC(N)=O)NC1=O [PSP II A12, H-rrkkctnsrfinc-OH] (H-[dR][dR][dK][dK][dC][dT][dN][dS][dR][dF][dI][dN][dC]-OH; disulfide 5-13) | 70.6

System: H1N1 A1/Malaysia/302/1954
Details: A1/Malaysia/302/1954, 48 h, 1 μM

Row | Compound | % Inhibition [%]
4 | CC[C@@H](C)[C@H]1NC(=O)[C@@H](C)NC(=O)[C@@H]([C@H](C)O)NC(=O)[C@@H](Cc2ccccc2)NC(=O)[C@@H](Cc2c[nH]c3ccccc23)NC(=O)[C@@H](Cc2c[nH]c3ccccc23)NC(=O)[C@H](NC(=O)[C@H](CCCCN)NC(=O)[C@H](CCCCN)NC(=O)[C@H](CCCNC(=N)N)NC(=O)[C@@H](N)CCCNC(=N)N)CSSC[C@H](C(=O)O)NC(=O)[C@@H](C)NC1=O [PSP VII A1, H-RRKKcwwftaiac-OH] (H-RRKK[dC][dW][dW][dF][dT][dA][dI][dA][dC]-OH; disulfide 5-13) | 25.2
5 | CC[C@@H](C)[C@H]1NC(=O)[C@@H](CS)NC(=O)[C@@H]([C@H](C)O)NC(=O)[C@@H](Cc2ccccc2)NC(=O)[C@@H](Cc2c[nH]c3ccccc23)NC(=O)[C@@H](Cc2c[nH]c3ccccc23)NC(=O)[C@H](NC(=O)[C@H](CCCCN)NC(=O)[C@H](CCCCN)NC(=O)[C@H](CCCNC(=N)N)NC(=O)[C@@H](N)CCCNC(=N)N)CSSC[C@H](C(=O)O)NC(=O)[C@@H](C)NC1=O [PSP VII A2, H-RRKKcwwftciac-OH] (H-RRKK[dC][dW][dW][dF][dT][dC][dI][dA][dC]-OH; disulfide 5-13) | 11.9
6 | CC[C@@H](C)[C@H]1NC(=O)[C@@H](CC(=O)O)NC(=O)[C@@H]([C@H](C)O)NC(=O)[C@@H](Cc2ccccc2)NC(=O)[C@@H](Cc2c[nH]c3ccccc23)NC(=O)[C@@H](Cc2c[nH]c3ccccc23)NC(=O)[C@H](NC(=O)[C@H](CCCCN)NC(=O)[C@H](CCCCN)NC(=O)[C@H](CCCNC(=N)N)NC(=O)[C@@H](N)CCCNC(=N)N)CSSC[C@H](C(=O)O)NC(=O)[C@@H](C)NC1=O [PSP VII A3, H-RRKKcwwftdiac-OH] (H-RRKK[dC][dW][dW][dF][dT][dD][dI][dA][dC]-OH; disulfide 5-13) | 9.5
7 | CC[C@@H](C)[C@H]1NC(=O)[C@@H](CCC(=O)O)NC(=O)[C@@H]([C@H](C)O)NC(=O)[C@@H](Cc2ccccc2)NC(=O)[C@@H](Cc2c[nH]c3ccccc23)NC(=O)[C@@H](Cc2c[nH]c3ccccc23)NC(=O)[C@H](NC(=O)[C@H](CCCCN)NC(=O)[C@H](CCCCN)NC(=O)[C@H](CCCNC(=N)N)NC(=O)[C@@H](N)CCCNC(=N)N)CSSC[C@H](C(=O)O)NC(=O)[C@@H](C)NC1=O [PSP VII A4, H-RRKKcwwfteiac-OH] (H-RRKK[dC][dW][dW][dF][dT][dE][dI][dA][dC]-OH; disulfide 5-13) | 3.8
8 | CC[C@@H](C)[C@H]1NC(=O)CNC(=O)[C@@H]([C@H](C)O)NC(=O)[C@@H](Cc2ccccc2)NC(=O)[C@@H](Cc2c[nH]c3ccccc23)NC(=O)[C@@H](Cc2c[nH]c3ccccc23)NC(=O)[C@H](NC(=O)[C@H](CCCCN)NC(=O)[C@H](CCCCN)NC(=O)[C@H](CCCNC(=N)N)NC(=O)[C@@H](N)CCCNC(=N)N)CSSC[C@H](C(=O)O)NC(=O)[C@@H](C)NC1=O [PSP VII A5, H-RRKKcwwftGiac-OH] (H-RRKK[dC][dW][dW][dF][dT]G[dI][dA][dC]-OH; disulfide 5-13) | 9.5
9 | CC[C@@H](C)[C@H]1NC(=O)[C@@H](Cc2c[nH]cn2)NC(=O)[C@@H]([C@H](C)O)NC(=O)[C@@H](Cc2ccccc2)NC(=O)[C@@H](Cc2c[nH]c3ccccc23)NC(=O)[C@@H](Cc2c[nH]c3ccccc23)NC(=O)[C@H](NC(=O)[C@H](CCCCN)NC(=O)[C@H](CCCCN)NC(=O)[C@H](CCCNC(=N)N)NC(=O)[C@@H](N)CCCNC(=N)N)CSSC[C@H](C(=O)O)NC(=O)[C@@H](C)NC1=O [PSP VII A7, H-RRKKcwwfthiac-OH] (H-RRKK[dC][dW][dW][dF][dT][dH][dI][dA][dC]-OH; disulfide 5-13) | 47.1
10 | CC[C@@H](C)[C@H]1NC(=O)[C@@H]([C@H](C)O)NC(=O)[C@@H](Cc2ccccc2)NC(=O)[C@@H](Cc2c[nH]c3ccccc23)NC(=O)[C@@H](Cc2c[nH]c3ccccc23)NC(=O)[C@H](NC(=O)[C@H](CCCCN)NC(=O)[C@H](CCCCN)NC(=O)[C@H](CCCNC(=N)N)NC(=O)[C@@H](N)CCCNC(=N)N)CSSC[C@H](C(=O)O)NC(=O)[C@@H](C)NC(=O)[C@@H]([C@H](C)CC)NC1=O [PSP VII A8, H-RRKKcwwftiiac-OH] (H-RRKK[dC][dW][dW][dF][dT][dI][dI][dA][dC]-OH; disulfide 5-13) | 84.8
11 | CC[C@@H](C)[C@H]1NC(=O)[C@@H](CCCCN)NC(=O)[C@@H]([C@H](C)O)NC(=O)[C@@H](Cc2ccccc2)NC(=O)[C@@H](Cc2c[nH]c3ccccc23)NC(=O)[C@@H](Cc2c[nH]c3ccccc23)NC(=O)[C@H](NC(=O)[C@H](CCCCN)NC(=O)[C@H](CCCCN)NC(=O)[C@H](CCCNC(=N)N)NC(=O)[C@@H](N)CCCNC(=N)N)CSSC[C@H](C(=O)O)NC(=O)[C@@H](C)NC1=O [PSP VII A9, H-RRKKcwwftkiac-OH] (H-RRKK[dC][dW][dW][dF][dT][dK][dI][dA][dC]-OH; disulfide 5-13) | 17.4
12 | CC[C@@H](C)[C@H]1NC(=O)[C@@H](CC(C)C)NC(=O)[C@@H]([C@H](C)O)NC(=O)[C@@H](Cc2ccccc2)NC(=O)[C@@H](Cc2c[nH]c3ccccc23)NC(=O)[C@@H](Cc2c[nH]c3ccccc23)NC(=O)[C@H](NC(=O)[C@H](CCCCN)NC(=O)[C@H](CCCCN)NC(=O)[C@H](CCCNC(=N)N)NC(=O)[C@@H](N)CCCNC(=N)N)CSSC[C@H](C(=O)O)NC(=O)[C@@H](C)NC1=O [PSP VII A10, H-RRKKcwwftliac-OH] (H-RRKK[dC][dW][dW][dF][dT][dL][dI][dA][dC]-OH; disulfide 5-13) | 35.7
13 | CC[C@@H](C)[C@H]1NC(=O)[C@@H](CCSC)NC(=O)[C@@H]([C@H](C)O)NC(=O)[C@@H](Cc2ccccc2)NC(=O)[C@@H](Cc2c[nH]c3ccccc23)NC(=O)[C@@H](Cc2c[nH]c3ccccc23)NC(=O)[C@H](NC(=O)[C@H](CCCCN)NC(=O)[C@H](CCCCN)NC(=O)[C@H](CCCNC(=N)N)NC(=O)[C@@H](N)CCCNC(=N)N)CSSC[C@H](C(=O)O)NC(=O)[C@@H](C)NC1=O [PSP VII A11, H-RRKKcwwftmiac-OH] (H-RRKK[dC][dW][dW][dF][dT][dM][dI][dA][dC]-OH; disulfide 5-13) | 9.8
14 | CC[C@@H](C)[C@H]1NC(=O)[C@@H](CC(N)=O)NC(=O)[C@@H]([C@H](C)O)NC(=O)[C@@H](Cc2ccccc2)NC(=O)[C@@H](Cc2c[nH]c3ccccc23)NC(=O)[C@@H](Cc2c[nH]c3ccccc23)NC(=O)[C@H](NC(=O)[C@H](CCCCN)NC(=O)[C@H](CCCCN)NC(=O)[C@H](CCCNC(=N)N)NC(=O)[C@@H](N)CCCNC(=N)N)CSSC[C@H](C(=O)O)NC(=O)[C@@H](C)NC1=O [PSP VII A12, H-RRKKcwwftniac-OH] (H-RRKK[dC][dW][dW][dF][dT][dN][dI][dA][dC]-OH; disulfide 5-13) | 55.2
15 | CC[C@@H](C)[C@H]1NC(=O)[C@H]2CCCN2C(=O)[C@@H]([C@H](C)O)NC(=O)[C@@H](Cc2ccccc2)NC(=O)[C@@H](Cc2c[nH]c3ccccc23)NC(=O)[C@@H](Cc2c[nH]c3ccccc23)NC(=O)[C@H](NC(=O)[C@H](CCCCN)NC(=O)[C@H](CCCCN)NC(=O)[C@H](CCCNC(=N)N)NC(=O)[C@@H](N)CCCNC(=N)N)CSSC[C@H](C(=O)O)NC(=O)[C@@H](C)NC1=O [PSP VII A13, H-RRKKcwwftpiac-OH] (H-RRKK[dC][dW][dW][dF][dT][dP][dI][dA][dC]-OH; disulfide 5-13) | 41.9
16 | CC[C@@H](C)[C@H]1NC(=O)[C@@H](CCC(N)=O)NC(=O)[C@@H]([C@H](C)O)NC(=O)[C@@H](Cc2ccccc2)NC(=O)[C@@H](Cc2c[nH]c3ccccc23)NC(=O)[C@@H](Cc2c[nH]c3ccccc23)NC(=O)[C@H](NC(=O)[C@H](CCCCN)NC(=O)[C@H](CCCCN)NC(=O)[C@H](CCCNC(=N)N)NC(=O)[C@@H](N)CCCNC(=N)N)CSSC[C@H](C(=O)O)NC(=O)[C@@H](C)NC1=O [PSP VII A14, H-RRKKcwwftqiac-OH] (H-RRKK[dC][dW][dW][dF][dT][dQ][dI][dA][dC]-OH; disulfide 5-13) | 21.9
17 | CC[C@@H](C)[C@H]1NC(=O)[C@@H](CCCNC(=N)N)NC(=O)[C@@H]([C@H](C)O)NC(=O)[C@@H](Cc2ccccc2)NC(=O)[C@@H](Cc2c[nH]c3ccccc23)NC(=O)[C@@H](Cc2c[nH]c3ccccc23)NC(=O)[C@H](NC(=O)[C@H](CCCCN)NC(=O)[C@H](CCCCN)NC(=O)[C@H](CCCNC(=N)N)NC(=O)[C@@H](N)CCCNC(=N)N)CSSC[C@H](C(=O)O)NC(=O)[C@@H](C)NC1=O [PSP VII A15, H-RRKKcwwftriac-OH] (H-RRKK[dC][dW][dW][dF][dT][dR][dI][dA][dC]-OH; disulfide 5-13) | 39.1

Same assay, conditions: A1/Malaysia/302/1954, 48 h, 500 μM

Row | Compound | % inhibition H1N1 [%]
18 | CSCC[C@H]1NC(=O)[C@@H](Cc2ccccc2)NC(=O)[C@@H](CCCNC(=N)N)NC(=O)[C@@H](CO)NC(=O)[C@@H](CCCCN)NC(=O)[C@@H]([C@H](C)O)NC(=O)[C@H](N)CSSC[C@H](C(=O)O)NC(=O)[C@@H](CC(N)=O)NC1=O [PSP 11, H-ctksrfmnc-OH] (H-[dC][dT][dK][dS][dR][dF][dM][dN][dC]-OH; disulfide 1-9) | 5.8
19 | CC[C@@H](C)[C@H]1NC(=O)[C@@H](Cc2ccccc2)NC(=O)[C@@H](CCCNC(=N)N)NC(=O)[C@@H](CO)NC(=O)[C@@H](CS)NC(=O)[C@@H]([C@H](C)O)NC(=O)[C@H](NC(=O)[C@@H](CCCCN)NC(=O)[C@@H](CCCCN)NC(=O)[C@@H](CCCNC(=N)N)NC(=O)[C@H](N)CCCNC(=N)N)CSSC[C@H](C(=O)O)NC(=O)[C@@H](CC(N)=O)NC1=O [PSP II A2, H-rrkkctcsrfinc-OH] (H-[dR][dR][dK][dK][dC][dT][dC][dS][dR][dF][dI][dN][dC]-OH; disulfide 5-13) | 1.7
20 | CC[C@@H](C)[C@H]1NC(=O)[C@@H](Cc2ccccc2)NC(=O)[C@@H](CCCNC(=N)N)NC(=O)[C@@H](CO)NC(=O)[C@@H](CC(N)=O)NC(=O)[C@@H]([C@H](C)O)NC(=O)[C@H](NC(=O)[C@@H](CCCCN)NC(=O)[C@@H](CCCCN)NC(=O)[C@@H](CCCNC(=N)N)NC(=O)[C@H](N)CCCNC(=N)N)CSSC[C@H](C(=O)O)NC(=O)[C@@H](CC(N)=O)NC1=O [PSP II A12, H-rrkkctnsrfinc-OH] (H-[dR][dR][dK][dK][dC][dT][dN][dS][dR][dF][dI][dN][dC]-OH; disulfide 5-13) | 53.8
